Measurements published in ChEMBL document CHEMBL5113453, “Design, synthesis, and biological evaluation of a new series of pyrazole derivatives: Discovery of potent and selective JNK3 kinase inhibitors” (Bioorg Med Chem, 2022).

How the values were obtained:
NCI-H226 = assay: Antiproliferative activity against human NCI-H226 cells measured after 48 hrs by SRB assay; type: functional, cell-based
SK-MEL-28 = assay: Antiproliferative activity against human SK-MEL-28 cells measured after 48 hrs by SRB assay; type: functional, cell-based
T47D = assay: Antiproliferative activity against human T47D cells measured after 48 hrs by SRB assay; type: functional, cell-based
786-0 = assay: Antiproliferative activity against human 786-0 cells measured after 48 hrs by SRB assay; type: functional, cell-based
UO-31 = assay: Antiproliferative activity against human UO-31 cells measured after 48 hrs by SRB assay; type: functional, cell-based
HOP-92 = assay: Antiproliferative activity against human HOP-92 cells measured after 48 hrs by SRB assay; type: functional, cell-based
OVCAR-3 = assay: Antiproliferative activity against human OVCAR-3 cells measured after 48 hrs by SRB assay; type: functional, cell-based
SF-539 = assay: Antiproliferative activity against human SF-539 cells measured after 48 hrs by SRB assay; type: functional, cell-based
NCI/ADR-RES = assay: Antiproliferative activity against human NCI-ADR-RES cells measured after 48 hrs by SRB assay; type: functional, cell-based
OVCAR-4 = assay: Antiproliferative activity against human OVCAR-4 cells measured after 48 hrs by SRB assay; type: functional, cell-based
M14 = assay: Antiproliferative activity against human M14 cells measured after 48 hrs by SRB assay; type: functional, cell-based
OVCAR-5 = assay: Antiproliferative activity against human OVCAR-5 cells measured after 48 hrs by SRB assay; type: functional, cell-based
COLO 205 = assay: Antiproliferative activity against human COLO 205 cells measured after 48 hrs by SRB assay; type: functional, cell-based
U-251 = assay: Antiproliferative activity against human U-251 cells measured after 48 hrs by SRB assay; type: functional, cell-based
SR = assay: Antiproliferative activity against human SR cells measured after 48 hrs by SRB assay; type: functional, cell-based
A498 = assay: Antiproliferative activity against human A498 cells measured after 48 hrs by SRB assay; type: functional, cell-based
MDA-MB-435 = assay: Antiproliferative activity against human MDA-MB-435 cells measured after 48 hrs by SRB assay; type: functional, cell-based
SNB-75 = assay: Antiproliferative activity against human SNB-75 cells measured after 48 hrs by SRB assay; type: functional, cell-based
SK-MEL-2 = assay: Antiproliferative activity against human SK-MEL-2 cells measured after 48 hrs by SRB assay; type: functional, cell-based
WI-38 = assay: Antiproliferative activity against human WI-38 cells measured by MTT assay; type: functional, cell-based
KM12 = assay: Antiproliferative activity against human KM12 cells measured after 48 hrs by SRB assay; type: functional, cell-based
CCRF-CEM = assay: Antiproliferative activity against human CCRF-CEM cells measured after 48 hrs by SRB assay; type: functional, cell-based
MDA-MB-231 = assay: Antiproliferative activity against human MDA-MB-231 cells measured after 48 hrs by SRB assay; type: functional, cell-based
NCI-H460 = assay: Antiproliferative activity against human NCI-H460 cells measured after 48 hrs by SRB assay; type: functional, cell-based
MCF7 = assay: Antiproliferative activity against human MCF7 cells measured after 48 hrs by SRB assay; type: functional, cell-based
HCC 2998 = assay: Antiproliferative activity against human HCC 2998 cells measured after 48 hrs by SRB assay; type: functional, cell-based
SN12C = assay: Antiproliferative activity against human SN12C cells measured after 48 hrs by SRB assay; type: functional, cell-based
UACC-62 = assay: Antiproliferative activity against human UACC-62 cells measured after 48 hrs by SRB assay; type: functional, cell-based
[1] = target: Mitogen-activated protein kinase 10 (Homo sapiens, UniProt P53779); assay: Inhibition of JNK3 (unknown origin)
TK-10 = assay: Antiproliferative activity against human TK-10 cells measured after 48 hrs by SRB assay; type: functional, cell-based
RPMI-8226 = assay: Antiproliferative activity against human RPMI-8226 cells measured after 48 hrs by SRB assay; type: functional, cell-based
HL-60(TB) = assay: Antiproliferative activity against human HL-60(TB) cells measured after 48 hrs by SRB assay; type: functional, cell-based
SK-OV-3 = assay: Antiproliferative activity against human SK-OV-3 cells measured after 48 hrs by SRB assay; type: functional, cell-based
Malme-3M = assay: Antiproliferative activity against human Malme-3M cells measured after 48 hrs by SRB assay; type: functional, cell-based
SNB-19 = assay: Antiproliferative activity against human SNB-19 cells measured after 48 hrs by SRB assay; type: functional, cell-based
HT-29 = assay: Antiproliferative activity against human HT-29 cells measured after 48 hrs by SRB assay; type: functional, cell-based
BT-549 = assay: Antiproliferative activity against human BT-549 cells measured after 48 hrs by SRB assay; type: functional, cell-based
DU-145 = assay: Antiproliferative activity against human DU-145 cells measured after 48 hrs by SRB assay; type: functional, cell-based
SF-295 = assay: Antiproliferative activity against human SF-295 cells measured after 48 hrs by SRB assay; type: functional, cell-based

Chain of Mitogen-activated protein kinase 10 (P53779 whole entry): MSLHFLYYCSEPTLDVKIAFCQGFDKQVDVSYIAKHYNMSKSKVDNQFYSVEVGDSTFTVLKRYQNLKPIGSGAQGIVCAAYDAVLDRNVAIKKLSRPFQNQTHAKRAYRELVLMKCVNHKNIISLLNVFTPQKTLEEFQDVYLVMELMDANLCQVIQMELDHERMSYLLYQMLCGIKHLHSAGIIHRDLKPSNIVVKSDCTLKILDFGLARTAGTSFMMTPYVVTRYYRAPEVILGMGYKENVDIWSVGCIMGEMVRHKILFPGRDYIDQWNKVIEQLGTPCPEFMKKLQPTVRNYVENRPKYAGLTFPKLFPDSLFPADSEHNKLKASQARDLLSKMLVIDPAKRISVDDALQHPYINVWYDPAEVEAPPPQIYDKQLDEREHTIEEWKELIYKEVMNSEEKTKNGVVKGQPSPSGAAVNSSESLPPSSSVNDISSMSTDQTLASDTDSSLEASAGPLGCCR

`O=C(NCCCNc1cc(-c2cn(-c3ccccc3)nc2-c2cccc(O)c2)ccn1)Nc1cccc(C(F)(F)F)c1` gave an IC50 (NCI-H226; NCI-H226, 48 h) of 4.88 µM, a TGI (NCI-H226; NCI-H226, time 48 hrs) of 11.5 µM and an IC50 (SK-MEL-28; SK-MEL-28, 48 h) of 3.48 µM. The TGI (SK-MEL-28; SK-MEL-28, time 48 hrs) was 7.51 µM, the IC50 (T47D; 48 h) was 3.42 µM and the TGI (T47D; time 48 hrs) was 16.7 µM. The IC50 (786-0; 786-0, 48 h) was 1.07 µM, the TGI (786-0; 786-0, time 48 hrs) was 3.71 µM and the IC50 (UO-31; UO-31, 48 h) was 2.1 µM. The TGI (UO-31; UO-31, time 48 hrs) was 10.8 µM, the IC50 (HOP-92; HOP-92, 48 h) was 1.25 µM and the TGI (HOP-92; HOP-92, time 48 hrs) was 6.01 µM. The IC50 (OVCAR-3; OVCAR-3, 48 h) was 1.87 µM, the TGI (OVCAR-3; OVCAR-3, time 48 hrs) was 9.35 µM and the IC50 (SF-539; SF-539, 48 h) was 2.78 µM. It also gave a TGI (SF-539; SF-539, time 48 hrs) of 7.18 µM, an IC50 (NCI/ADR-RES; 48 h) of 4.9 µM and a TGI (NCI/ADR-RES; time 48 hrs) of 12.8 µM. For the same compound, the IC50 (OVCAR-4; OVCAR-4, 48 h) was 2.13 µM, the TGI (OVCAR-4; OVCAR-4, time 48 hrs) was 7.75 µM and the IC50 (M14; M14, 48 h) was 2.18 µM. For the same compound, the TGI (M14; M14, time 48 hrs) was 6.98 µM, the IC50 (OVCAR-5; OVCAR-5, 48 h) was 3.96 µM and the TGI (OVCAR-5; OVCAR-5, time 48 hrs) was 9.71 µM. It also gave an IC50 (COLO 205; COLO 205, 48 h) of 2.97 µM, a TGI (COLO 205; COLO 205, time 48 hrs) of 8.72 µM and an IC50 (U-251; U-251, 48 h) of 2.57 µM. It also gave a TGI (U-251; U-251, time 48 hrs) of 7.45 µM, an IC50 (SR; 48 h) of 1.65 µM and a TGI (SR; time 48 hrs) of 12.8 µM. It also gave an IC50 (A498; A498, 48 h) of 3.17 µM, a TGI (A498; A498, time 48 hrs) of 7.18 µM and an IC50 (MDA-MB-435; MDA-MB-435, 48 h) of 3.41 µM. The TGI (MDA-MB-435; MDA-MB-435, time 48 hrs) was 7.57 µM, the IC50 (SNB-75; SNB-75, 48 h) was 0.74 µM and the TGI (SNB-75; SNB-75, time 48 hrs) was 4.1 µM. It also gave an IC50 (SK-MEL-2; SK-MEL-2, 48 h) of 5.29 µM, a TGI (SK-MEL-2; SK-MEL-2, time 48 hrs) of 11.7 µM and an IC50 (WI-38) of 13.6 µM. The IC50 (KM12; KM12, 48 h) was 2.63 µM, the TGI (KM12; KM12, time 48 hrs) was 7.39 µM and the IC50 (CCRF-CEM; 48 h) was 1.71 µM. It also gave a TGI (CCRF-CEM; time 48 hrs) greater than 33.3 µM, an IC50 (MDA-MB-231; MDA-MB-231, 48 h) of 2.85 µM and a TGI (MDA-MB-231; MDA-MB-231, time 48 hrs) of 7.76 µM. For the same compound, the IC50 (NCI-H460; NCI-H460, 48 h) was 3.48 µM, the TGI (NCI-H460; NCI-H460, time 48 hrs) was 8.89 µM and the IC50 (MCF7; MCF7, 48 h) was 2.73 µM. For the same compound, the TGI (MCF7; MCF7, time 48 hrs) was 9.39 µM, the IC50 (HCC 2998; HCC 2998, 48 h) was 1.26 µM and the TGI (HCC 2998; HCC 2998, time 48 hrs) was 4.34 µM. For the same compound, the IC50 (SN12C; 48 h) was 3.65 µM, the TGI (SN12C; time 48 hrs) was 7.91 µM and the IC50 (UACC-62; UACC-62, 48 h) was 4.41 µM. It also gave a TGI (UACC-62; UACC-62, time 48 hrs) of 8.84 µM, an IC50 [1] of 0.474 µM and an IC50 (TK-10; TK-10, 48 h) of 5.75 µM. It also gave a TGI (TK-10; TK-10, time 48 hrs) of 13.2 µM, an IC50 (RPMI-8226; RPMI-8226, 48 h) of 0.73 µM and a TGI (RPMI-8226; RPMI-8226, time 48 hrs) of 6.12 µM. For the same compound, the IC50 (HL-60(TB); HL-60, 48 h) was 3.42 µM, the TGI (HL-60(TB); HL-60, time 48 hrs) was 14.5 µM and the IC50 (SK-OV-3; SK-OV-3, 48 h) was 4.49 µM. For the same compound, the TGI (SK-OV-3; SK-OV-3, time 48 hrs) was 10.1 µM, the IC50 (Malme-3M; 48 h) was 1.54 µM and the TGI (Malme-3M; time 48 hrs) was 6.08 µM. It also gave an IC50 (SNB-19; SNB-19, 48 h) of 3.99 µM, a TGI (SNB-19; SNB-19, time 48 hrs) of 8.97 µM and an IC50 (HT-29; HT-29, 48 h) of 1.51 µM. The TGI (HT-29; HT-29, time 48 hrs) was 6.19 µM, the IC50 (BT-549; BT-549, 48 h) was 3.26 µM and the TGI (BT-549; BT-549, time 48 hrs) was 7.63 µM. For the same compound, the IC50 (DU-145; DU-145, 48 h) was 4.8 µM, the TGI (DU-145; DU-145, time 48 hrs) was 11.9 µM and the IC50 (SF-295; SF-295, 48 h) was 1.76 µM. It also gave a TGI (SF-295; SF-295, time 48 hrs) of 6.42 µM.
